PubChem BioAssay (NCI)
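Cultured in 96-well plates, cells were exposed to test compound for 48 hours across five concentrations. At the TGI there is no net growth.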 Active and inactive are the calls of the source. Rule as the data show it: active = GI50 below about 0.43 µM; inactive = the rest.

Tests used:
Test in all cases: DTP human tumour cell line panel, 48 h
786-0 renal = tested on: 786-0 renal
A549 NSCLC = tested on: A549 NSCLC
ACHN renal = tested on: ACHN renal
CAKI-1 renal = tested on: CAKI-1 renal
CCRF-CEM leukemia = tested on: CCRF-CEM leukemia
COLO 205 colon = tested on: COLO 205 colon
DLD-1 colon = tested on: DLD-1 colon
DMS 114 small cell lung = tested on: DMS 114 small cell lung
DMS 273 small cell lung = tested on: DMS 273 small cell lung
EKVX NSCLC = tested on: EKVX NSCLC
HCC-2998 colon = tested on: HCC-2998 colon
HCT-15 colon = tested on: HCT-15 colon
HL-60(TB) leukemia = tested on: HL-60(TB) leukemia
HOP-62 NSCLC = tested on: HOP-62 NSCLC
HOP-92 NSCLC = tested on: HOP-92 NSCLC
HT29 colon = tested on: HT29 colon
IGROV1 ovarian = tested on: IGROV1 ovarian
K-562 leukemia = tested on: K-562 leukemia
KM12 colon = tested on: KM12 colon
KM20L2 colon = tested on: KM20L2 colon
LOX IMVI melanoma = tested on: LOX IMVI melanoma
LXFL 529 NSCLC = tested on: LXFL 529 NSCLC
M14 melanoma = tested on: M14 melanoma
M19-MEL melanoma = tested on: M19-MEL melanoma
MALME-3M melanoma = tested on: MALME-3M melanoma
MOLT-4 leukemia = tested on: MOLT-4 leukemia
NCI-H226 lung = tested on: NCI-H226 lung
NCI-H23 lung = tested on: NCI-H23 lung
NCI-H460 lung = tested on: NCI-H460 lung
NCI-H522 lung = tested on: NCI-H522 lung
OVCAR-3 ovarian = tested on: OVCAR-3 ovarian
OVCAR-4 ovarian = tested on: OVCAR-4 ovarian
OVCAR-5 ovarian = tested on: OVCAR-5 ovarian
OVCAR-8 ovarian = tested on: OVCAR-8 ovarian
RPMI-8226 leukemia = tested on: RPMI-8226 leukemia
RXF 393 renal = tested on: RXF 393 renal
SF-268 CNS = tested on: SF-268 CNS
SF-295 CNS = tested on: SF-295 CNS
SF-539 CNS = tested on: SF-539 CNS
SK-MEL-2 melanoma = tested on: SK-MEL-2 melanoma
SK-OV-3 ovarian = tested on: SK-OV-3 ovarian
SN12C renal = tested on: SN12C renal
SNB-19 CNS = tested on: SNB-19 CNS
SNB-75 CNS = tested on: SNB-75 CNS
SNB-78 CNS = tested on: SNB-78 CNS
SR leukemia = tested on: SR leukemia
SW-620 colon = tested on: SW-620 colon
U251 CNS = tested on: U251 CNS
UACC-257 melanoma = tested on: UACC-257 melanoma
UACC-62 melanoma = tested on: UACC-62 melanoma
UO-31 renal = tested on: UO-31 renal
XF 498 CNS = tested on: XF 498 CNS
A498 renal = tested on: A498 renal
HCT-116 colon = tested on: HCT-116 colon
SK-MEL-28 melanoma = tested on: SK-MEL-28 melanoma
SK-MEL-5 melanoma = tested on: SK-MEL-5 melanoma
TK-10 renal = tested on: TK-10 renal
HOP-18 NSCLC = tested on: HOP-18 NSCLC

Structure (SMILES): C=C1C(=O)O[C@@H]2C1C(OC(C)CCC)[C@@H](O)[C@@H](C)C(O)C1O[C@]1(C)[C@H]2O (some centres undefined)
- outcome (786-0 renal): inactive
- outcome (A549 NSCLC): inactive
- outcome (ACHN renal): inactive
- outcome (CAKI-1 renal): inactive
- outcome (CCRF-CEM leukemia): inactive
- outcome (COLO 205 colon): inactive
- outcome (DLD-1 colon): inactive
- outcome (DMS 114 small cell lung): inactive
- outcome (DMS 273 small cell lung): inactive
- outcome (EKVX NSCLC): inactive
- outcome (HCC-2998 colon): inactive
- outcome (HCT-15 colon): inactive
- outcome (HL-60(TB) leukemia): inactive
- outcome (HOP-62 NSCLC): inactive
- outcome (HOP-92 NSCLC): inactive
- outcome (HT29 colon): inactive
- outcome (IGROV1 ovarian): inactive
- outcome (K-562 leukemia): inactive
- outcome (KM12 colon): inactive
- outcome (KM20L2 colon): inactive
- outcome (LOX IMVI melanoma): inactive
- outcome (LXFL 529 NSCLC): inactive
- outcome (M14 melanoma): inactive
- outcome (M19-MEL melanoma): inactive
- outcome (MALME-3M melanoma): inactive
- outcome (MOLT-4 leukemia): inactive
- outcome (NCI-H226 lung): inactive
- outcome (NCI-H23 lung): inactive
- outcome (NCI-H460 lung): inactive
- outcome (NCI-H522 lung): inactive
- outcome (OVCAR-3 ovarian): inactive
- outcome (OVCAR-4 ovarian): inactive
- outcome (OVCAR-5 ovarian): inactive
- outcome (OVCAR-8 ovarian): inactive
- outcome (RPMI-8226 leukemia): inactive
- outcome (RXF 393 renal): inactive
- outcome (SF-268 CNS): inactive
- outcome (SF-295 CNS): inactive
- outcome (SF-539 CNS): inactive
- outcome (SK-MEL-2 melanoma): inactive
- outcome (SK-OV-3 ovarian): inactive
- outcome (SN12C renal): inactive
- outcome (SNB-19 CNS): inactive
- outcome (SNB-75 CNS): inactive
- outcome (SNB-78 CNS): inactive
- outcome (SR leukemia): inactive
- outcome (SW-620 colon): inactive
- outcome (U251 CNS): inactive
- outcome (UACC-257 melanoma): inactive
- outcome (UACC-62 melanoma): inactive
- outcome (UO-31 renal): inactive
- outcome (XF 498 CNS): inactive

Structure (SMILES): Nc1ccc(C(=O)N/C(=C\c2cccc([N+](=O)[O-])c2)c2nc3ccccc3[nH]2)cc1
- TGI (786-0 renal): > 100 µM
- TGI (A498 renal): > 100 µM
- TGI (A549 NSCLC): > 100 µM
- TGI (ACHN renal): > 100 µM
- TGI (CAKI-1 renal): > 100 µM
- TGI (CCRF-CEM leukemia): > 100 µM
- TGI (COLO 205 colon): > 100 µM
- TGI (DLD-1 colon): > 100 µM
- TGI (DMS 114 small cell lung): > 100 µM
- TGI (DMS 273 small cell lung): > 100 µM
- TGI (EKVX NSCLC): > 100 µM
- TGI (HCC-2998 colon): > 100 µM
- TGI (HCT-116 colon): > 100 µM
- TGI (HCT-15 colon): > 100 µM
- TGI (HL-60(TB) leukemia): > 100 µM
- TGI (HOP-62 NSCLC): 67 µM
- TGI (HOP-92 NSCLC): > 66.4 µM
- TGI (HT29 colon): > 100 µM
- TGI (IGROV1 ovarian): > 100 µM
- TGI (K-562 leukemia): > 100 µM
- TGI (KM12 colon): > 100 µM
- TGI (KM20L2 colon): > 100 µM
- TGI (LOX IMVI melanoma): > 100 µM
- TGI (LXFL 529 NSCLC): > 100 µM
- TGI (M14 melanoma): > 100 µM
- TGI (M19-MEL melanoma): > 100 µM
- TGI (MALME-3M melanoma): > 100 µM
- TGI (MOLT-4 leukemia): > 100 µM
- TGI (NCI-H226 lung): > 100 µM
- TGI (NCI-H23 lung): > 100 µM
- TGI (NCI-H460 lung): > 100 µM
- TGI (NCI-H522 lung): 98.8 µM
- TGI (OVCAR-3 ovarian): > 100 µM
- TGI (OVCAR-4 ovarian): > 83.3 µM
- TGI (OVCAR-5 ovarian): > 100 µM
- TGI (OVCAR-8 ovarian): > 100 µM
- TGI (RPMI-8226 leukemia): > 100 µM
- TGI (RXF 393 renal): 59.4 µM
- TGI (SF-268 CNS): > 100 µM
- TGI (SF-295 CNS): > 100 µM
- TGI (SF-539 CNS): > 100 µM
- TGI (SK-MEL-2 melanoma): > 100 µM
- TGI (SK-MEL-28 melanoma): > 100 µM
- TGI (SK-MEL-5 melanoma): > 100 µM
- TGI (SK-OV-3 ovarian): > 82.7 µM
- TGI (SN12C renal): > 100 µM
- TGI (SNB-19 CNS): > 100 µM
- TGI (SNB-75 CNS): 69.4 µM
- TGI (SNB-78 CNS): > 100 µM
- TGI (SR leukemia): > 100 µM
- TGI (SW-620 colon): > 100 µM
- TGI (TK-10 renal): > 100 µM
- TGI (U251 CNS): > 100 µM
- TGI (UACC-62 melanoma): > 100 µM
- TGI (UO-31 renal): 63.8 µM
- TGI (XF 498 CNS): 59.8 µM

Structure (SMILES): C/C=C/CC(S(=O)(=O)c1ccccc1)S(=O)(=O)c1ccccc1
- TGI (A498 renal): > 100 µM
- TGI (A549 NSCLC): > 100 µM
- TGI (ACHN renal): > 100 µM
- TGI (CCRF-CEM leukemia): > 100 µM
- TGI (COLO 205 colon): > 100 µM
- TGI (DLD-1 colon): > 100 µM
- TGI (DMS 114 small cell lung): 81.8 µM
- TGI (DMS 273 small cell lung): > 100 µM
- TGI (EKVX NSCLC): > 100 µM
- TGI (HCC-2998 colon): > 100 µM
- TGI (HCT-116 colon): > 100 µM
- TGI (HCT-15 colon): > 100 µM
- TGI (HL-60(TB) leukemia): > 100 µM
- TGI (HOP-18 NSCLC): > 100 µM
- TGI (HOP-62 NSCLC): > 100 µM
- TGI (HOP-92 NSCLC): > 100 µM
- TGI (HT29 colon): > 100 µM
- TGI (IGROV1 ovarian): > 100 µM
- TGI (K-562 leukemia): > 100 µM
- TGI (KM12 colon): > 100 µM
- TGI (KM20L2 colon): > 100 µM
- TGI (LOX IMVI melanoma): > 100 µM
- TGI (M14 melanoma): > 100 µM
- TGI (MOLT-4 leukemia): > 100 µM
- TGI (NCI-H226 lung): > 100 µM
- TGI (NCI-H23 lung): > 100 µM
- TGI (NCI-H460 lung): > 100 µM
- TGI (NCI-H522 lung): > 100 µM
- TGI (OVCAR-3 ovarian): > 100 µM
- TGI (OVCAR-4 ovarian): > 100 µM
- TGI (OVCAR-5 ovarian): > 100 µM
- TGI (OVCAR-8 ovarian): > 100 µM
- TGI (RPMI-8226 leukemia): > 100 µM
- TGI (RXF 393 renal): > 100 µM
- TGI (SF-295 CNS): > 100 µM
- TGI (SF-539 CNS): > 100 µM
- TGI (SK-MEL-2 melanoma): > 100 µM
- TGI (SK-MEL-28 melanoma): > 100 µM
- TGI (SK-MEL-5 melanoma): > 100 µM
- TGI (SK-OV-3 ovarian): > 100 µM
- TGI (SN12C renal): > 100 µM
- TGI (SNB-19 CNS): > 100 µM
- TGI (SNB-75 CNS): > 100 µM
- TGI (SR leukemia): > 100 µM
- TGI (SW-620 colon): > 100 µM
- TGI (TK-10 renal): > 100 µM
- TGI (U251 CNS): > 100 µM
- TGI (UACC-257 melanoma): > 100 µM
- TGI (UACC-62 melanoma): > 100 µM
- TGI (UO-31 renal): > 100 µM
- TGI (XF 498 CNS): > 100 µM
